From ChEMBL document CHEMBL1275334, “5-Piperazinyl-3-sulfonylindazoles as potent and selective 5-hydroxytryptamine-6 antagonists” (J Med Chem, 2010)
Active and inactive are the calls of the source. The calls are words filed in the database; no cut-off is given here.

How the values were obtained:
Rattus norvegicus [1] = assay: Enhancement of memory in po dosed rat assessed as minimum effective dose measured after 48 hrs delay by novel object recognition test; type: functional; conditions: read-out: MED
[2] = Oral bioavailability in rat at 10 mg/kg; type: ADME, organism-based; conditions: in vivo
Rattus norvegicus [3] = assay: Enhancement of memory in po dosed rat measured after 48 hrs delay by novel object recognition test; type: functional, organism-based
[4] = target: 5-hydroxytryptamine receptor 1D (Homo sapiens, UniProt P28221); assay: Displacement of [3H]LSD from human cloned 5HT1D receptor expressed in human HeLa cells; type: cell-based
Rattus norvegicus [5] = assay: Inhibition of scopolamine-induced memory deficit in po dosed rat by novel object recognition test; type: functional; conditions: read-out: MED
[6] = target: T1, Alpha-2A adrenergic receptor (Homo sapiens, UniProt P08913); assay: Displacement of [3H]LSD from human cloned alpha2A adrenergic receptor expressed in human HeLa cells; type: cell-based
T1 sequence (P08913 whole entry): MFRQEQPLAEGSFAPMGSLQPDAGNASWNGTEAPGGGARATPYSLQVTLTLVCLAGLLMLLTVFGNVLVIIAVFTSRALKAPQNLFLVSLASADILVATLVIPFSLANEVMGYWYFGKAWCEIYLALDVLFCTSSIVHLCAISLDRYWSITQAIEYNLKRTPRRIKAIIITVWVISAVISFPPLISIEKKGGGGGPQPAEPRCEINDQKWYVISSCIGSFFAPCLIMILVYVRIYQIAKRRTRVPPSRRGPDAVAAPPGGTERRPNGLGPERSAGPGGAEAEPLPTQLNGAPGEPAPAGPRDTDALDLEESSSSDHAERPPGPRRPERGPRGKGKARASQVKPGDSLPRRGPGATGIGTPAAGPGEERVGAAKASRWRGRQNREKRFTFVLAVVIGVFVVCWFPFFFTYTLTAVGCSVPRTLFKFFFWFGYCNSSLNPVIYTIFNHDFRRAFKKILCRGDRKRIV

[7] = Plasma protein binding in rat at 10 mg/kg, po; type: ADME, organism-based; set-up: dose 10 mg/kg, route oral; conditions: read-out: PPB (converted)
[8] = Protein binding in rat brain at 10 mg/kg, po; type: ADME, organism-based; set-up: dose 10 mg/kg, route oral; conditions: read-out: PPB (converted)
D(2) dopamine receptor = D(2) dopamine receptor (Homo sapiens, UniProt P14416); assay: Displacement of [3H]LSD from human cloned dopamine D2 receptor expressed in human HeLa cells; type: cell-based
[9] = Solubility of the compound in water; type: physicochemical
[10] = target: T2, 5-hydroxytryptamine receptor 6 (Homo sapiens, UniProt P50406); assay: Antagonist activity at human cloned 5HT6 receptor expressed in human HeLa cells by cyclase assay relative to control; type: functional, cell-based
[11] = target: 5-hydroxytryptamine receptor 1B (Homo sapiens, UniProt P28222); assay: Displacement of [3H]LSD from human cloned 5HT1B receptor expressed in human HeLa cells; type: cell-based
[12] = Ratio of drug level in brain to plasma in dog at 10 mg/kg, po; type: ADME, organism-based, Canis lupus familiaris; set-up: dose 10 mg/kg, route oral; conditions: read-out: BPR
[13] = target: T3, 5-hydroxytryptamine receptor 2C (Homo sapiens, UniProt P28335); assay: Displacement of [3H]LSD from human cloned 5HT2C receptor expressed in human HeLa cells; type: cell-based
T3 sequence (P28335 whole entry): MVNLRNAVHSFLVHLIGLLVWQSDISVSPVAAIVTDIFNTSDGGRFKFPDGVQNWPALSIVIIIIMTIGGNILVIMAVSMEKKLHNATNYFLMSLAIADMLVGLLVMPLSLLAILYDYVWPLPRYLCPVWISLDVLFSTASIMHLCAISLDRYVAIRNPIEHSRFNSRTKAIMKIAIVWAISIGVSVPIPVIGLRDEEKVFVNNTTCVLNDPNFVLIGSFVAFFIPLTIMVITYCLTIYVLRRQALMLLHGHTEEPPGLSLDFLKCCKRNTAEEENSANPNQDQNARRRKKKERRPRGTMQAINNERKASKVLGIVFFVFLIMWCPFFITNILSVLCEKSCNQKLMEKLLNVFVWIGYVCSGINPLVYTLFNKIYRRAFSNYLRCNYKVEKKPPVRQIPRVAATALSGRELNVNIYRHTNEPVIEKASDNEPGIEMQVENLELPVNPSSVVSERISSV

[14] = target: 5-hydroxytryptamine receptor 7 (Homo sapiens, UniProt P34969); assay: Displacement of [3H]LSD from human cloned 5HT7 receptor expressed in human HeLa cells; type: cell-based
Rattus norvegicus [15] = assay: Induction of acetylcholine release in hippocampus of rat at 10 mg/kg, po; type: functional, organism-based; set-up: dose 10 mg/kg
[16] = Ratio of drug level in brain to plasma in rat at 10 mg/kg, po; type: ADME, organism-based; set-up: dose 10 mg/kg, route oral; conditions: read-out: BPR
[17] = target: T2, 5-hydroxytryptamine receptor 6; assay: Antagonist activity at human cloned 5HT6 receptor expressed in human HeLa cells by cyclase assay; type: functional, cell-based
Rattus norvegicus [18] = assay: Induction of glutamate release in hippocampus of rat at 10 mg/kg, po; type: functional, organism-based; set-up: dose 10 mg/kg
[19] = target: T4, 5-hydroxytryptamine receptor 1A (Homo sapiens, UniProt P08908); assay: Displacement of [3H]LSD from human cloned 5HT1A receptor expressed in human HeLa cells; type: cell-based
T4 sequence (P08908 whole entry): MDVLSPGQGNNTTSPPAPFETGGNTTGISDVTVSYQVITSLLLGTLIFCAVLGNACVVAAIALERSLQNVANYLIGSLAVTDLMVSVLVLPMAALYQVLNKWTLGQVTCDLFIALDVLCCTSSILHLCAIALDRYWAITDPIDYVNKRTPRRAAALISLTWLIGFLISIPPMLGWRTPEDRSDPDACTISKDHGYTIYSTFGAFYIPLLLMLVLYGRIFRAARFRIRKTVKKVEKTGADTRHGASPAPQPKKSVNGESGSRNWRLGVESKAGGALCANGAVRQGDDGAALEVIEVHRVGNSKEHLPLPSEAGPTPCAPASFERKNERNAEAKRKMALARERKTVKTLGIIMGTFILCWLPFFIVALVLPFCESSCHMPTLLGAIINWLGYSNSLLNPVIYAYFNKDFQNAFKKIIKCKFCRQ

[20] = target: T5, 5-hydroxytryptamine receptor 2B (Homo sapiens, UniProt P41595); assay: Agonist activity at human recombinant 5HT2B receptor expressed in CHOK1 cells at 0.0001 to 10 uM by FLIPR assay; type: functional, cell-based; conditions: CHO-K1
[21] = target: T5, 5-hydroxytryptamine receptor 2B; assay: Displacement of [3H]LSD from human cloned 5HT2B receptor expressed in human HeLa cells; type: cell-based
[22] = Oral bioavailability in dog at 10 mg/kg; type: ADME, organism-based, Canis lupus familiaris; conditions: in vivo

T2 sequence (P50406 whole entry): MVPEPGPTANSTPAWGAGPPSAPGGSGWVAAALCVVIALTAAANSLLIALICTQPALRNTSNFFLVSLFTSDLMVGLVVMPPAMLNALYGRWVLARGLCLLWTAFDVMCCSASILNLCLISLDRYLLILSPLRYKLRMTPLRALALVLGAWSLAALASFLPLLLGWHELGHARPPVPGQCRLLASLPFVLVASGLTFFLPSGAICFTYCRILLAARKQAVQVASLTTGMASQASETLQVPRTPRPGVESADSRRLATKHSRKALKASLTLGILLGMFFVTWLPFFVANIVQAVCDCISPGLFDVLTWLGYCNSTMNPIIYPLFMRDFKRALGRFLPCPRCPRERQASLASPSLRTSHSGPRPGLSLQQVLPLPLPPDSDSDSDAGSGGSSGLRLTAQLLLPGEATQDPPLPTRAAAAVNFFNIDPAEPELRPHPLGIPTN
T5 sequence (P41595 whole entry): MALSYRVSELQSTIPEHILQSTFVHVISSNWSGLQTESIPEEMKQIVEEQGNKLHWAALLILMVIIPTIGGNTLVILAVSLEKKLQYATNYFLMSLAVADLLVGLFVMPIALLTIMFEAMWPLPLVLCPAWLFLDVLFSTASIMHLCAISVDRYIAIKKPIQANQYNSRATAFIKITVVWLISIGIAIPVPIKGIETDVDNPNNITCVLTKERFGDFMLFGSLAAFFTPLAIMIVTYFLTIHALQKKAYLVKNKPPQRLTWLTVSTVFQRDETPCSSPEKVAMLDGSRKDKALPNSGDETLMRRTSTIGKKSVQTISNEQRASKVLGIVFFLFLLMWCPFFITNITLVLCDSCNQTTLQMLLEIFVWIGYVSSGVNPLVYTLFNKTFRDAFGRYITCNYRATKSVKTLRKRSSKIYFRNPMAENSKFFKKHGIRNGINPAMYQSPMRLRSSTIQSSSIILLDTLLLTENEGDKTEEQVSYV
Chain of 5-hydroxytryptamine receptor 1D (P28221 whole entry): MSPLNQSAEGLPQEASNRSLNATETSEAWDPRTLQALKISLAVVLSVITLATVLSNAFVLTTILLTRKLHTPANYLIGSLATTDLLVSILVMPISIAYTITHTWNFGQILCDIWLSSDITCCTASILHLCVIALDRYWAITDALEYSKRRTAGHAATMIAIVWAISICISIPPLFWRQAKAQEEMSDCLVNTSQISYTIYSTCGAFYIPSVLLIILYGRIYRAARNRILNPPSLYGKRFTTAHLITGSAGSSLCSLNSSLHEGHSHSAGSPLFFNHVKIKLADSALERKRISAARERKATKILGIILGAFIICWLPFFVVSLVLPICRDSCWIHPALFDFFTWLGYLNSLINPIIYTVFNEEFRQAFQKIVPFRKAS
Chain of 5-hydroxytryptamine receptor 7 (P34969 whole entry): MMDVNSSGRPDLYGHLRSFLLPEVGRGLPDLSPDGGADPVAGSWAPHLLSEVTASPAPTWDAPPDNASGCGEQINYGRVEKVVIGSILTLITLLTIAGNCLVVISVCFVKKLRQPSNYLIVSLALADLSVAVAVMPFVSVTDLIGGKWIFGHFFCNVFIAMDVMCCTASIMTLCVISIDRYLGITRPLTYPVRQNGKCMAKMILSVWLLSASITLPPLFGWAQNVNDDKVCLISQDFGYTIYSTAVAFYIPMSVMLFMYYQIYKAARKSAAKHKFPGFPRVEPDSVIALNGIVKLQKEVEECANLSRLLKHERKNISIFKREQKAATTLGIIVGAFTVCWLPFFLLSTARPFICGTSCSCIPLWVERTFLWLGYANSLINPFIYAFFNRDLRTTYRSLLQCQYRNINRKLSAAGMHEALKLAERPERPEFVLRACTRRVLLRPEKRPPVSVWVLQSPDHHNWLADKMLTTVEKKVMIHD
Chain of D(2) dopamine receptor (P14416 whole entry): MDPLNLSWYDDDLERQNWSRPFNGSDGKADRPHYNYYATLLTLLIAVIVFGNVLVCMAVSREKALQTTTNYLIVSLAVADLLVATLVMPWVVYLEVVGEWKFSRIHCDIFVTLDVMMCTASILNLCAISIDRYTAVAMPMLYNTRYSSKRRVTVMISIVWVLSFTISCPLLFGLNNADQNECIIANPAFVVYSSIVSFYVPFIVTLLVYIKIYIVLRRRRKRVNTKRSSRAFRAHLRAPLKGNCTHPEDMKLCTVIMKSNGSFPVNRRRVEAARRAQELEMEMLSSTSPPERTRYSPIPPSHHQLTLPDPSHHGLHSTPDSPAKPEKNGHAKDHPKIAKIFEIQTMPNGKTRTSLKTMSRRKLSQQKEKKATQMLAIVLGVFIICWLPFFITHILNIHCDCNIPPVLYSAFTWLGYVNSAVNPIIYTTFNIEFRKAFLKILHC
Chain of 5-hydroxytryptamine receptor 1B (P28222 whole entry): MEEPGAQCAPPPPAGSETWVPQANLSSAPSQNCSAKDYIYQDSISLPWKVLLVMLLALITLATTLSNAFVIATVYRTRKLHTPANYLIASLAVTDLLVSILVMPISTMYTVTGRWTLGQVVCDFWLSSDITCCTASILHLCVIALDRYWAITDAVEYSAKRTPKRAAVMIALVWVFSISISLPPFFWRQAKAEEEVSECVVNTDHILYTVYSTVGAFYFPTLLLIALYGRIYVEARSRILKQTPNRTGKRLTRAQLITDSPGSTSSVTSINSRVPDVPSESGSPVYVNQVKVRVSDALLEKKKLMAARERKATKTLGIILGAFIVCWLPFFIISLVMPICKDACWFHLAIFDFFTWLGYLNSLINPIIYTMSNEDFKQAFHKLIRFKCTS

With `O=S(=O)(c1cccc2ccccc12)c1n[nH]c2ccc(N3CCNCC3)cc12` as the compound, how does the minimal effective dose (Rattus norvegicus [1]) read?
The minimal effective dose was 3 mg/kg.

What about the bioavailability [2] of the same compound?
The bioavailability was greater than 20%.

What about the Activity (Rattus norvegicus [3]) of the same compound?
The Activity was “Dose-dependent effect”.

And the Ki [4]?
The Ki was greater than 5000 nM.

What about the minimal effective dose (Rattus norvegicus [5]) of the same compound?
Its minimal effective dose is 0.03 mg/kg.

What about the Ki [6] of the same compound?
The Ki was greater than 5000 nM.

What about the fraction unbound [7] of the same compound?
The fraction unbound was 0.2.

What about the fraction unbound [8] of the same compound?
The fraction unbound was 0.2.

What about the Ki (D(2) dopamine receptor) of the same compound?
Its Ki is greater than 5000 nM.

And the solubility [9]?
The solubility was greater than 100 µg/mL.

What about the Imax [10] of the same compound?
The Imax was 100%.

And the Ki [11]?
Its Ki is greater than 5000 nM.

What about the Kp [12] of the same compound?
Its Kp is less than 0.2.

What about the Ki [13] of the same compound?
Its Ki is greater than 5000 nM.

What about the Ki [14] of the same compound?
The Ki was 1560 nM.

What about the Activity (Rattus norvegicus [15]) of the same compound?
The Activity was “Active”.

What about the Kp [16] of the same compound?
Its Kp is less than 0.2.

What about the IC50 [17] of the same compound?
Its IC50 is 13 nM.

What about the Activity (Rattus norvegicus [18]) of the same compound?
The Activity was “Active”.

And the Ki [19]?
The Ki was 573 nM.

And the Activity [20]?
Its Activity is “inactive”.

What about the Ki [21] of the same compound?
Its Ki is 236 nM.

And the bioavailability [22]?
Its bioavailability is greater than 20%.
